13 molecules from US20130245275A1, “PHENYL DIAMIDES AND A PHARMACEUTICAL PREPARATION COMPRISING PHENYL DIAMIDES” (Rheinische Friedrich-Wilhelms Universitaet Bonn, priority 2010, published 2013) can be followed below.

One assay relates to Gli36 wt. As to the kind of experiment: glioblastoma proliferation assay (MTT), Gli36 wt. Format: cell-based. The conditions noted are these: Homo sapiens, 250 nM, 72 h, vs DMSO control, read-out: inhibitory effect on cell proliferation as compared to control. On the procedure:
(§1) The effect of the phenyl diamides according to formulas (5) to (18) on the proliferation of Glioblastoma cells was tested in two pairs of established human glioblastoma cell lines, Gli36 and U87. Human Gli36 wt, U87 wt and U87 EGFRvIII cells were a gift from Prof. Dr. Andreas H. Jacobs, European Institute for Molecular Imaging, Munster, Germany. The cells were maintained in DMEM (PAA) supplemented with 10% fetal calf serum (FCS, Lonza), 1% Penicillin/Streptomycin (PAA) and 110 μg/ml Sodiumpyruvat (Sigma-Aldrich) and were grown at 37° C., 5% CO2.
(§2) 3000 cells per 96 well were seeded into a clear, flat bottom 96 well plate (TPP). After 24 hours the cells were washed twice in 1×DPBS (PAA) and treated with 250 nM of the phenyl diamides according to formulas (5) to (18) in DMEM (PAA) supplemented with 1% FCS (Lonza), 1% Penicillin/Streptomycin (PAA) and 110 μg/ml Sodiumpyruvat (Sigma-Aldrich). Controls were treated with Dimethyl sulfoxide (DMSO) as solvent in an end concentration of 0.4% (v/v). A further control was performed with the control compound according to formula (XH1009). Medium was changed daily.
(§3) After 72 hours cell proliferation was quantified by using a commercially available 3-(4,5-dimethylthiazol-2-yl)-2,5diphenyltetrazolium bromide (MTT) assay (Cell Titer 96® Non-Radioactive Cell Proliferation Assay, Promega) as described in the manufacture's protocol. Briefly, 15 μl of Dye solution was added directly into the 100 μl media of the cells. After 4 hours incubation at 37° C., 5% CO2, 100 μl solubilization solution was added to solubilize the formazan product and the absorbance at 570 nm was measured in a Varioscan microplate reader (Thermo Scientific). All assays were performed at least in triplicates. For calculation of the relative proliferation rate/cell number the mean absorbance in the solvent DMSO only treated cells was set as 1. Results are given as the mean+/−standard error.
(§4) The FIGS. 2 and 3 show the relative cell numbers in the wild type glioblastoma cell line U87 wt (FIG. 2) and Gli36 wt (FIG. 3) normalized to the DSMO treated control after 72 h incubation with the respective phenyl diamides according to formulas (5) to (18), the DSMO treated control compound determined with a MTT proliferation essay. Data were normalized with the exchange in the solvent (DMSO) only control set as 1 and represent the mean values of duplicates, error bars correspond to standard error of the mean (SEM).

The next assay has as its system U87 wt. The assay can be described thus: glioblastoma proliferation assay (MTT), U87 wt. It counts as cell-based. The conditions noted are these: Homo sapiens, U87WT; for inhibition at 0.25 µM: 250 nM, 72 h, vs DMSO control, read-out: inhibitory effect on cell proliferation as compared to control; for IC50: 72 hours, at least 3 times, read-out: IC50 values of the inhibition of the proliferation in the cell line U87 wt. The procedure:
as §1, §2, §3, §4
(§5) U87 wt and U87 EGFRvIII cells were a gift from Prof. Dr. Andreas H. Jacobs, European Institute for Molecular Imaging, Münster, Germany. The cells were maintained in DMEM (PAA) supplemented with 1% FCS (Lonza), 1% Penicillin/Streptomycin (PAA) and 110 μg/ml Sodiumpyruvat (Sigma-Aldrich) and were grown at 37° C., 5% CO2.
(§6) 300 cells per 96 well were seeded into a clear, flat bottom 96 well plate (TPP). After 24 hours the cells were washed twice in 1×DPBS (PAA) and treated with concentrations ranging from 2.5 nM to 2 μM of the phenyl diamides according to formulas (5) to (18) or 5 μM of the control compound (XH1009) in DMEM (PAA) supplemented with 1% FCS (Lonza), 1% Penicillin/Streptomycin (PAA) and 110 μg/ml Sodiumpyruvat (Sigma-Aldrich). Controls were treated with Dimethyl sulfoxide (DMSO) as solvent in an end concentration of 0.4% (v/v). Medium was changed daily.
(§7) Further, the IC50 values of the inhibition of the proliferation was determined. The IC50 value was determined by plotting the relative cell number against the added concentrations of the amide. The IC50 value corresponds to the concentration of the phenyl diamides at which the proliferation is reduced to half. The lower the IC50 value, the more strongly the phenyl diamide inhibits proliferation.

The next assay relates to U87 EGFRvIII. The assay can be described thus: glioblastoma proliferation assay (MTT), U87 EGFRvIII; selectivity of the inhibition. The conditions noted are these: for IC50: Homo sapiens, U87 EGFRvIII, 72 hours, MTT, at least 3 times, read-out: IC50 values of the inhibition of the proliferation in the cell line U87 EGFRvIII; for selectivity of the inhibition of the EGFRvIII dependent cell proliferation: U87 EGFRvIII compared with parental U87 wt. It counts as cell-based, human. On the procedure:
as §5, §6, §3, §7

Assay [1] concerns the target T1, sec7-domain of cytohesin-2 (ARNO) (Homo sapiens, UniProt Q99418).
T1 construct: ARNO-Sec7 (amino acids 50-255 of ARNO) were expressed in Escherichia coli; made in house; host or cells: Escherichia coli
T1 sequence (Q99418 50-255): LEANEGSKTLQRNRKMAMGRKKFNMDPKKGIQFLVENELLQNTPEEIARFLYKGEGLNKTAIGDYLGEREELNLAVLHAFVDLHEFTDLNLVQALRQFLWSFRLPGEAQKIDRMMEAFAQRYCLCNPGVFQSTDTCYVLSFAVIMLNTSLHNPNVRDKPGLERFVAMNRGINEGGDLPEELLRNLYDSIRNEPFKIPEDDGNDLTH
The assay can be described thus: guanine nucleotide exchange assay (GDP/GTP exchange on [Δ17]ARF1, tryptophan fluorescence). The conditions noted are these: isolated Sec-7 domain, each experiment at least 8 times, read-out: IC50 values measured for the isolated Sec-7 domain of cytohesin-2. It counts as biochemical. On the procedure: The inhibition of the exchange activity of the sec7-domain of cytohesin-2 (ARNO) of the phenyl diamides according to formulas (5) to (18) was determined by a guanine nucleotide exchange assay.
The sec7-domain of cytohesin-2 (ARNO) and [Δ17]ARF1, a mutant of the ADP-ribosylation factor (ARF) protein, were subcloned into pET15 vectors (Novagen) as described in Hafner, M. et al. Nature 444, 941-944 (2006). N-terminal truncated [Δ17]ARF1 (amino acids 18-181), lacking the first 17 amino acids and ARNO-Sec7 (amino acids 50-255 of ARNO) were expressed in Escherichia coli and purified by Ni-NTA chromatography (Ni-NTA agarose, Qiagen).
The exchange from […] (GDP) to […] (GTP) induces a conformation change of the ribosylation factor, as a result of which the fluorescence of a tryptophan radical of the protein is increased. GDP/GTP exchange was measured on [Δ17]ARF1 by tryptophan fluorescence because a large increase in intrinsic fluorescence of ARF occurs upon exchange of GDP for GTP. All measurements were performed in PBS (137 mM NaCl, 2.7 mM KCl, 10.2 mM Na2HPO4, 1.8 mM KH2PO4) pH 7.4, 3 mM MgCl2 at 37° C.
[Δ17]ARF1 (1 μM) in PBS without MgCl2 was preincubated with 80 μM GDP in the presence of 2 mM ethylenediaminetetraacetic acid (EDTA) for 15 minutes. The bound GDP was stabilized by addition of MgCl2 at a final concentration of 3 mM and incubation for 5 minutes. For each exchange reaction 250 nM [Δ17]ARF1 was mixed with 10 nM ARNO-Sec7 (total volume 200 μl) in the absence or presence of the phenyl diamides according to formulas (5) to (18). The reaction was started by injection of 50 μM GTP.
The tryptophan fluorescence was measured at excitation and emission wavelength of 280 nm and 340 nm respectively. All fluorescent measurements were performed with a Varioskan microplate reader (Thermo Scientific), in 96-well plates. For analysis all data were fitted by linear regression.
The relative exchange rate was determined by comparing the initial linear rise of the fluorescence signal (exchange rate) in the presence of 2.5 μM of the phenyl diamides according to formulas (5) to (18) with the exchange rate in the presence of the solvent Dimethyl sulfoxide (DMSO), 0.4% end concentration, only. A further control was performed with the control compound according to formula (XH1009) as indicated below: […]
Further, the IC50 value of the inhibition of the sec7-domain of the isolated cytohesin-2 was determined. The IC50 value was determined by plotting the initial linear rise of the fluorescence signal against the added concentrations of the amide. The IC50 value corresponds to the concentration of the phenyl diamides at which the activity of the protein is reduced to half. The lower the IC50 value, the more strongly the phenyl diamide inhibits the sec7-domain.

Entries after “also recorded” stand apart in the source; their conditions may differ.

Take `Cc1ccccc1C(=O)Nc1ccc(NC(=O)c2ccc(C(C)(C)C)cc2)cc1` [formula (8)]: the inhibition at 0.25 µM with Gli36 wt and in the assay on U87 wt was greater than 50% throughout. Moreover, the IC50 was 0.118 µM in the assay with U87 wt, 0.148 µM with U87 EGFRvIII and 1.19 µM in assay [1].

On to `CC(C)(C)c1ccc(C(=O)Nc2ccc(NC(=O)c3ccc([N+](=O)[O-])cc3)cc2)cc1` [formula (10)], for which the inhibition at 0.25 µM in the assay with Gli36 wt and in the assay with U87 wt was greater than 50% in each case. In addition, the IC50 worked out at 0.028 µM with U87 wt, 0.083 µM in the assay on U87 EGFRvIII and 0.44 µM in assay [1]. Further, the “selectivity of the inhibition of the EGFRvIII dependent cell proliferation” value with U87 EGFRvIII is on record as “selectivety for the inhibition of the parental U87 wt cell line”.

With `CC(C)(C)c1ccc(C(=O)Nc2ccc(NC(=O)c3ccccc3[N+](=O)[O-])cc2)cc1` [formula (5), N-{4-[(4-tert-butylbenzoyl)amino]phenyl}-2-nitrobenzamide], the inhibition at 0.25 µM in the assay on Gli36 wt and in the assay with U87 wt was 30 to 50% throughout. Besides, the IC50 in the assay on U87 wt stood at 0.168 µM; with U87 EGFRvIII, 0.046 µM; in assay [1] it was 1.18 µM.

Consider `CC(C)(C)c1ccc(C(=O)Nc2ccc(NC(=O)c3cccc(Cl)c3)cc2)cc1` [formula (6), N-{4-[(4-tert-butylbenzoyl)amino]phenyl}-3-chlorobenzamide], for which the inhibition at 0.25 µM with Gli36 wt and with U87 wt was 30 to 50% each time. Further, the IC50 in the assay on U87 wt worked out at 0.243 µM; in the assay on U87 EGFRvIII, 0.067 µM; in assay [1] it was 0.79 µM.

`CC(C)(C)c1ccc(C(=O)Nc2ccc(NC(=O)c3ccc(Br)o3)cc2)cc1` [formula (7)]: the figures for the IC50 (in the assay with U87 wt; with U87 EGFRvIII; in assay [1]) were 1.37 µM, 0.198 µM and 4.57 µM, respectively. The “selectivity of the inhibition of the EGFRvIII dependent cell proliferation” value with U87 EGFRvIII is “selectively inhibited the proliferation of the U87 EGFRvIII-containing cell line; also recorded: selectivity for the mutation EGFR variant III (EGFRvIII)”.

`CC(C)(C)c1ccc(C(=O)Nc2ccc(NC(=O)c3ccccc3Cl)cc2)cc1` [formula (11)]: the inhibition at 0.25 µM with Gli36 wt and in the assay on U87 wt was greater than 50% throughout. The values for the IC50 (with U87 wt; in the assay with U87 EGFRvIII; in assay [1]) were 0.106 µM, 0.126 µM and 2.58 µM, respectively.

On to `CC(C)(C)c1ccc(C(=O)Nc2ccc(NC(=O)/C=C/c3ccco3)cc2)cc1` [formula (16), 4-tert-butyl-N-[4-[[(E)-3-furan-2-ylprop-2-enoyl]amino]phenyl]-benzamide], for which the IC50 in the assay on U87 wt stood at 0.958 µM; in the assay on U87 EGFRvIII, 0.435 µM; in assay [1], 3.75 µM. For the same molecule, the “selectivity of the inhibition of the EGFRvIII dependent cell proliferation” value with U87 EGFRvIII was “no selectivety”.

Consider `CC(C)(C)c1ccc(C(=O)Nc2ccc(NC(=O)c3ccc(F)cc3)cc2)cc1` [formula (9)], for which the inhibition at 0.25 µM in the assay on Gli36 wt and in the assay on U87 wt was 30 to 50% throughout. The IC50 with U87 wt is 0.089 µM; with U87 EGFRvIII, 0.372 µM; in assay [1], 2.1 µM.

Consider `Cc1ccc(C(=O)Nc2ccc(NC(=O)c3ccc(C(C)(C)C)cc3)cc2)c(C)c1` [formula (12)], for which the IC50 amounted to 0.367 µM with U87 wt, 0.084 µM in the assay with U87 EGFRvIII and 1.86 µM in assay [1].

With `Cc1ccc(C(=O)Nc2ccc(NC(=O)c3ccc(C(C)(C)C)cc3)cc2)cc1` [formula (14)], the inhibition at 0.25 µM in the assay with Gli36 wt and in the assay on U87 wt was greater than 50% throughout. The IC50 in assay [1] worked out at 1.76 µM.

Take `CC(C)(C)c1ccc(C(=O)Nc2ccc(NC(=O)c3ccncc3)cc2)cc1` [formula (13)]: the IC50 in the assay on U87 wt amounted to 2.09 µM; in the assay with U87 EGFRvIII, 0.186 µM; in assay [1] it was 7.27 µM. In the assay on U87 EGFRvIII, the “selectivity of the inhibition of the EGFRvIII dependent cell proliferation” value is reported as “selectively inhibits the EGFRvIII expressing U87 cell line; also recorded: selectively inhibited the proliferation of the U87 EGFRvIII-containing cell line; also recorded: selectivity for the mutation EGFR variant III (EGFRvIII)”. In addition, in the assay with U87 EGFRvIII (U87 EGFRvIII vs parental U87 wt, FIG. 4B), the “inhibition of proliferation of EGFRvIII-cells relative to parental cell line” value is recorded as “more than 10 fold”.

In the case of `CC(C)(C)c1ccc(C(=O)Nc2ccc(NC(=O)c3ccc4c(c3)OCO4)cc2)cc1` [formula (17)], the IC50 is 0.922 µM with U87 wt, 0.224 µM with U87 EGFRvIII and 2.69 µM in assay [1]. For the same molecule, the “selectivity of the inhibition of the EGFRvIII dependent cell proliferation” value with U87 EGFRvIII is “selectively inhibited the proliferation of the U87 EGFRvIII-containing cell line; also recorded: selectivity for the mutation EGFR variant III (EGFRvIII)”.

Take `CC(C)(C)c1ccc(C(=O)Nc2ccc(NC(=O)c3ccccc3F)cc2)cc1` [formula (15)]: the IC50 in assay [1] turned out to be 1.77 µM.
